# Experimental data as given in patent US20040063790A1, “Methods for inhibition of angiogenesis” (The Scripps Research Institute, priority 1996, published 2004).
# [ ]: non-standard residue; d: D form.
# Legend:
# [1] = test system: bFGF-induced angiogenesis; test: CAM assay, growth factor-induced angiogenesis, intravenous application; type: in vivo, chick; settings: for inhibition of bFGF-induced angiogenesis (branch points): intravenous 18 hours after bFGF induction, FIG. 12
# Protocol: J. Pathol., 79:597 (1975). CAMs were prepared from chick embryos for subsequent induction of angiogenesis and inhibition thereof as described in Examples 4 and 5, respectively. Ten day old chick embryos were obtained from McIntyre Poultry (Lakeside, Calif.) and incubated at 37° C. with 60% humidity. A small hole was made through the shell at the end of the egg directly over the air sac with the use of a small crafts drill (Dremel, Division of Emerson Electric Co. Racine Wis.). A second hole was drilled on the broad side of the egg in a region devoid of embryonic blood vessels determined previously by candling the egg. […] A 1.0 centimeter (cm)×1.0 cm square window was cut through the shell over the dropped CAM with the use of a small model grinding wheel (Dremel). The small window allowed direct access to the underlying CAM.
# Angiogenesis was induced by placing a 5 millimeter (mm)×5 mm Whatman filter disk (Whatman Filter paper No.1) saturated with Hanks Balanced Salt Solution (HBSS, GIBCO, Grand Island, N.Y.) or HBSS containing 150 nanograms/milliliter (ng/ml) recombinant basic fibroblast growth factor (bFGF) (Genzyme, Cambridge, Mass.) on the CAM of a 10-day chick embryo in a region devoid of blood vessels and the windows were latter sealed with tape. In other assays, 125 ng/ml bFGF was also effective at inducing blood vessel growth. For assays where inhibition of angiogenesis ws evaluated with intravenous injections of antagonists, angiogenesis was first induced with 1-2 μg/ml bFGF in fibroblast growth medium. Angiogenesis was monitored by photomicroscopy after 72 hours. CAMs were snap frozen, and 6 um cryostat sections were fixed with acetone and stained by immunofluorescence as described in Example 3C with 10 μg/ml of either anti-β1 monoclonal antibody CSAT or LM609.
# For CAM preparations in which angiogenesis was induced with 1-2 μg/ml bFGF as previously described, synthetic peptides 69601 (control) and 66203 (SEQ ID NO: 5) were separately intravenously injected into CAM preparations 18 hours after bFGF induction of angiogenesis. The preparations were maintained for an additional 36-40 hours after which time the number of branch points were determined as previously described.
# In other assays, peptide 85189 (SEQ ID NO: 15) was evaluated for inhibiting bFGF-induced angiogenesis in the CAM assay over a dosage range of 10 μg/embryo to 300 μg/embryo. The assay was performed as previously described.
# In still further assays, peptide 85189 was compared to peptides 69601 and 66203 for anti-angiogenesis activity. The assay was performed as described above with the exception that 50 μg peptide were used.
# The effectiveness of the different salt formulations of peptide 85189 was also evaluated in similar bFGF-induced CAM assays. The peptides were used at 100 μg/embryo. […] Untreated CAMs, labeled as “no cytokine” had approximately […] as many branch points as that seen with bFGF treatment, respectively 70 versus 190.
# With the above-described protocol, the effect of MMP-2 fusion proteins, CTMMP-2(2-4), also referred to as CTMMP-2(445-467) and CTMMP-2(10-1), also referred to as CTMMP-2(274-637) was also evaluated. The assay was performed as previously described with the exception that 50 μg of fusion protein was administered to the bFGF-treated embryos. The effect of fusion protein treatment was assessed at 24 hours, 48 hours and 72 hours.
# The 10 day old CAM preparation was used as previously described in Example 5A. Twenty-four hours after bFGF-induced angiogenesis was initiated, the organic peptidomimetics referred to as compounds 16 (81218), 17 (87292) and 18 (87293) were separately intravenously injected into the CAM preparation in a volume of 100 μl at a concentration of 1 mg/ml (100 μg/embryo) in 20% tetraglycol-PBS at pH 7.0. In parallel assays, compounds 7 (96112), 9 (99799), 10 (96229), 12 (112854) and 14 (96113) were similarly evaluated. […]
# [2] = test system: human M21-L melanoma tumor; test: Tumor regression in the CAM assay, M21-L; type: in vivo, chick
# Protocol: (§1) As described in Example 5, in addition to visually assessing the effect of anti-αvβ3 antagonists on growth factor or tumor induced angiogenesis, the effect of the antagonists was also assessed by measuring any changes to the tumor mass following exposure. For this analysis, the tumor-induced angiogenesis CAM assay system was prepared as described in Example 4C. At the end of the 7 day incubation period, the resulting tumors were resected from the CAMs and trimmed free of any residual CAM tissue, washed with 1 ml of phosphate buffer saline and wet weights were determined for each tumor.
# (§2) To further assess the effects of αvβ3 antagonists on tumor growth and survival, fragments of human melanoma and fragments of carcinomas of the lung, pancreas, and larynx were placed on CAMS of 10-day old embryos as described in Example 3A.
# Human M21-L melanoma tumor fragments (50 mg) were implanted on the CAMs of 10 day old embryos as described in Example 3A and 3C. Twenty four hours later, embryos received a single intravenous injection of 300 μg/100 μl of either the cyclo-RADfV (69601) and or cyclo-RGDfV (66203). After a total of 72 hours, tumors were removed, examined morphologically, and photographed with a stereo microscope.
# Additional tumor regression assays were performed with the αvβ3-reactive peptide 85189 (SEQ ID NO: 15) against 69601 as a control. […]
# [3] = molecular target: T1, immobilized αvβ3 receptor (Homo sapiens, UniProt P05106+P06756); test: Ligand receptor binding assay with ELISA detection
# T1 construct: selected purified integrins were separately immobilized in Titertek microtiter wells
# T1 sequence (P06756 31-889 limits assumed): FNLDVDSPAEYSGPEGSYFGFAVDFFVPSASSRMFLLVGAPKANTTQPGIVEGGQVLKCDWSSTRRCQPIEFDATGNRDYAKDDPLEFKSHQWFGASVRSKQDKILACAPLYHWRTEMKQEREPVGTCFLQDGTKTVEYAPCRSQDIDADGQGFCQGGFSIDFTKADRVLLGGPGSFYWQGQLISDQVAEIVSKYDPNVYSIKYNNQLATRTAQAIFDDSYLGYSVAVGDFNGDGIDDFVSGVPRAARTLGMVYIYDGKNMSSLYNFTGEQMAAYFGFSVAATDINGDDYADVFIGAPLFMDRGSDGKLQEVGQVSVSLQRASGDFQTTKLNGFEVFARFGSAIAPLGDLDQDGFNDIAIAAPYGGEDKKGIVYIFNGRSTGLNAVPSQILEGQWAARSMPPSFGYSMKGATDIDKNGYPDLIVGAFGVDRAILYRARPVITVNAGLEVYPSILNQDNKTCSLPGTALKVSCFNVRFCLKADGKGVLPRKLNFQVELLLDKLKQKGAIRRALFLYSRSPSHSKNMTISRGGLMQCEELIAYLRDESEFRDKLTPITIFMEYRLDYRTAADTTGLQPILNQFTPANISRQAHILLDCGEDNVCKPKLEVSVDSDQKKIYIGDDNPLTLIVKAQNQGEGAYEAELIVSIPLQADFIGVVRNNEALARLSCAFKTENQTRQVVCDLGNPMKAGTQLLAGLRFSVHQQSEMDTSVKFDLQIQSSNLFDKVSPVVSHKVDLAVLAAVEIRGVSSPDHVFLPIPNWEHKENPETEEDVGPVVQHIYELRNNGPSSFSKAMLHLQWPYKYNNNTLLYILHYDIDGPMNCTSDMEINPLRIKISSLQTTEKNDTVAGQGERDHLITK
# T1 sequence (P06756 891-1048 partner limits assumed): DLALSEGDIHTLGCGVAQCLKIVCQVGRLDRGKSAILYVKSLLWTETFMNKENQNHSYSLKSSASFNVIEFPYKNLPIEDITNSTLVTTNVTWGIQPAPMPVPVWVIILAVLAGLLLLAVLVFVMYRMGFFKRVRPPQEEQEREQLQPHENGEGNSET
# T1 sequence (P05106 27-788): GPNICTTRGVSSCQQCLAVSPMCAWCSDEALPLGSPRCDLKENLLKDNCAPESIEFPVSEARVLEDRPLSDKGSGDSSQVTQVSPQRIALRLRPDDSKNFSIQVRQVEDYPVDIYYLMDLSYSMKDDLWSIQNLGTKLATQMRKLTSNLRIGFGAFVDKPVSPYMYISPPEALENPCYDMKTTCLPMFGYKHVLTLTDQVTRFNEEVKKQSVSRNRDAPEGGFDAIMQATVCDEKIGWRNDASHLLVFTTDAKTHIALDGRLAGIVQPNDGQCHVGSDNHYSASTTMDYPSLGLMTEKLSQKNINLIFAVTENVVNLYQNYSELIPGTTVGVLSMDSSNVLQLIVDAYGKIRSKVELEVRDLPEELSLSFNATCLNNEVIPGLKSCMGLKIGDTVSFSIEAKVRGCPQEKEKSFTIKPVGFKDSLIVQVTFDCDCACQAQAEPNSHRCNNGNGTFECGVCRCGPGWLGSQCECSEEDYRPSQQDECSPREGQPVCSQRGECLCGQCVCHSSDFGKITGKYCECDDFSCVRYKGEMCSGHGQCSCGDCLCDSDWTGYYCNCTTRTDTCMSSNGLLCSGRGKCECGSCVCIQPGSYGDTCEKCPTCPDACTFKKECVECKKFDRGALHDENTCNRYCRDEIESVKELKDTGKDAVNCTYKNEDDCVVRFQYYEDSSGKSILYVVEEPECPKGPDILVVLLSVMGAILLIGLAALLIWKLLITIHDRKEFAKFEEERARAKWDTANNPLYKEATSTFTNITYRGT
# Protocol: In addition, the ability of peptides to inhibit the binding of either MMP-2 or VN to immobilized αvβ3 was assessed with peptides 69601 (SEQ ID NO: 6) and 66203 (SEQ ID NO: 5).
# FgM tumors = test: Tumor regression in the CAM assay, FgM; type: in vivo, chick; settings: 100 μg intravenously 18 hours post-implantation; FIG. 17
# Protocol: as §1, §2
# Additional tumor regression assays were performed with the αvβ3-reactive peptide 85189 (SEQ ID NO: 15) against 69601 as a control. The assays were performed as described above with the exception that 100 μg of peptide was intravenously injected into the CAM at 18 hours post-implantation. After 48 hours more, the tumors were then resected and wet weights were obtained.
Substance,"inhibition of bFGF-induced angiogenesis, salt formulations ([1]; 100 μg/embryo)","number of branch points ([1]; 100 μg/embryo, bFGF alone 190, no cytokine 70)",inhibition of bFGF-induced angiogenesis (branch points) [1],"effect on tumor weight, M21-L ([2]; 100 μg intravenously 18 hours post-implantation, FIG. 16)",inhibition of binding of MMP-2 or VN to immobilized αvβ3 [3],"effect on tumor weight, FgM (FgM tumors)","inhibition of bFGF-mediated angiogenesis ([1]; 50 μg peptide, FIG. 14)","inhibiting angiogenesis, HCl versus TFA peptide ([1]; assays of Example 5)","inhibition of vessel formation in tumor ([2]; single intravenous injection of 300 μg/100 μl, 72 hours)"
"cyclo (RADfV) (cyclo(RAD[dF]V); SMILES CC(C)[C@@H]1NC(=O)[C@@H](Cc2ccccc2)NC(=O)[C@H](CC(=O)O)NC(=O)[C@H](C)NC(=O)[C@H](CCCNC(=N)N)NC1=O) [Peptide 69601, reference compound]",no effect on inhibiting angiogenesis,230 branch points,absence of inhibition,lack of effect,failed to have an effect with either ligand,lack of effect,,,
cyclo (RGDfV) [Peptide 66203],,,completely inhibited,,effective at inhibiting the binding of either substrate,,effective inhibitors of bFGF-mediated angiogenesis,slightly more effective,inhibited vessel formation
